Source: PubChem BioAssay AID1963444 (Molecular Pharmacology Branch, DTP, NCI, 2024)
Values joined by “and” are separate entries in the source; they are usually repeats but may differ in a detail not shown here. Equal entries are not always repeated.

System: HSSY-II complex spheroid growth, percent test/control
Experiment: Anticancer human tumor HSSY-II cell line growth inhibition [Asc];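 further: spheroids exposed to drug for 7 days before reading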
Conditions: for viability, T/C: stronger effect = lower value
How it was run: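 Tumor cells were grown as multicellular spheroids with stromal HUVEC and mesenchymal stem cells and treated singly or in combination. Concentrations fell in half-log steps from the clinical Cmax, or from 10 microM where none was known.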

In the case of `CCN1CCN(Cc2ccc(Nc3ncc(F)c(-c4cc(F)c5nc(C)n(C(C)C)c5c4)n3)nc2)CC1` + CCN1C(C(=O)NC23CCC(C(=O)O)(CC2)CC3)C(c2cccc(Cl)c2F)C2(C(=O)Nc3cc(Cl)ccc32)C12CCCCC2, the IC50 (curve of first compound, second compound 0.03 µM) is reported as 83.5 nM, the IC50 (curve of first compound, second compound 0.0949 µM) is reported as 16.8 nM and the IC50 (curve of first compound, second compound 0.3 µM) is reported as under 3.16 nM. It also gave an IC50 (curve of first compound, second compound 0.949 µM) of under 3.16 nM, an IC50 (curve of first compound, second compound 3 µM) of under 3.16 nM and a viability, T/C (second compound 0.03 µM, first compound 0.00316 µM) of 90.3%. It also gave a viability, T/C (second compound 0.03 µM, first compound 0.01 µM) of 72.4%, a viability, T/C (second compound 0.03 µM, first compound 0.0316 µM) of 58.7% and a viability, T/C (second compound 0.03 µM, first compound 0.1 µM) of 49.1%. The viability, T/C (second compound 0.03 µM, first compound 0.316 µM) was 39.5%, the viability, T/C (second compound 0.03 µM, first compound 1 µM) was 22.7% and the viability, T/C (second compound 0.0949 µM, first compound 0.00316 µM) was 63%. The viability, T/C (second compound 0.0949 µM, first compound 0.01 µM) was 57.5%, the viability, T/C (second compound 0.0949 µM, first compound 0.0316 µM) was 41.1% and the viability, T/C (second compound 0.0949 µM, first compound 0.1 µM) was 34%. For the same molecule, the viability, T/C (second compound 0.0949 µM, first compound 0.316 µM) was 26.1%, the viability, T/C (second compound 0.0949 µM, first compound 1 µM) was 12.1% and the viability, T/C (second compound 0.3 µM, first compound 0.00316 µM) was 27.4%. For the same molecule, the viability, T/C (second compound 0.3 µM, first compound 0.01 µM) was 22.6%, the viability, T/C (second compound 0.3 µM, first compound 0.0316 µM) was 24.6% and the viability, T/C (second compound 0.3 µM, first compound 0.1 µM) was 19.2%. It also gave a viability, T/C (second compound 0.3 µM, first compound 0.316 µM) of 13.8%, a viability, T/C (second compound 0.3 µM, first compound 1 µM) of 5.79% and a viability, T/C (second compound 0.949 µM, first compound 0.00316 µM) of 8.49%. For the same molecule, the viability, T/C (second compound 0.949 µM, first compound 0.01 µM) was 8.58%, the viability, T/C (second compound 0.949 µM, first compound 0.0316 µM) was 8.12% and the viability, T/C (second compound 0.949 µM, first compound 0.1 µM) was 6.47%. It also gave a viability, T/C (second compound 0.949 µM, first compound 0.316 µM) of 6.16%, a viability, T/C (second compound 0.949 µM, first compound 1 µM) of 3.21% and a viability, T/C (second compound 3 µM, first compound 0.00316 µM) of 2.42%. It also gave a viability, T/C (second compound 3 µM, first compound 0.01 µM) of 2.83%, a viability, T/C (second compound 3 µM, first compound 0.0316 µM) of 2.95% and a viability, T/C (second compound 3 µM, first compound 0.1 µM) of 2.31%. It also gave a viability, T/C (second compound 3 µM, first compound 0.316 µM) of 2.12% and a viability, T/C (second compound 3 µM, first compound 1 µM) of 4.53%.

`C=CC(=O)N1CCN(c2nc(=O)n(-c3c(C)ccnc3C(C)C)c3nc(-c4c(O)cccc4F)c(F)cc23)C(C)C1` (configuration not stated) + CNC(C)C(=O)NC1CN(S(=O)(=O)c2cccc(S(=O)(=O)N3CCC4CCC(C(=O)NC(c5ccccc5)c5ccccc5)N4C(=O)C(NC(=O)C(C)NC)C3)c2)CCC2CCC(C(=O)NC(c3ccccc3)c3ccccc3)N2C1=O was tested, and the IC50 (curve of first compound, second compound 0.01 µM) was 7990 nM, the IC50 (curve of first compound, second compound 0.0316 µM) was 5850 nM and the IC50 (curve of first compound, second compound 0.1 µM) was 5980 nM. The IC50 (curve of first compound, second compound 0.316 µM) was 7420 nM, the IC50 (curve of first compound, second compound 1 µM) was 6390 nM and the viability, T/C (second compound 0.01 µM, first compound 0.0316 µM) was 97.5%. It also gave a viability, T/C (second compound 0.01 µM, first compound 0.1 µM) of 108%, a viability, T/C (second compound 0.01 µM, first compound 0.316 µM) of 107% and a viability, T/C (second compound 0.01 µM, first compound 1 µM) of 101%. For the same molecule, the viability, T/C (second compound 0.01 µM, first compound 3.16 µM) was 94.3%, the viability, T/C (second compound 0.01 µM, first compound 10 µM) was 39.1% and the viability, T/C (second compound 0.0316 µM, first compound 0.0316 µM) was 92.9%. It also gave a viability, T/C (second compound 0.0316 µM, first compound 0.1 µM) of 104%, a viability, T/C (second compound 0.0316 µM, first compound 0.316 µM) of 91.7% and a viability, T/C (second compound 0.0316 µM, first compound 1 µM) of 89.8%. For the same molecule, the viability, T/C (second compound 0.0316 µM, first compound 3.16 µM) was 72%, the viability, T/C (second compound 0.0316 µM, first compound 10 µM) was 30.9% and the viability, T/C (second compound 0.1 µM, first compound 0.0316 µM) was 86.9%. For the same molecule, the viability, T/C (second compound 0.1 µM, first compound 0.1 µM) was 91.8%, the viability, T/C (second compound 0.1 µM, first compound 0.316 µM) was 90.6% and the viability, T/C (second compound 0.1 µM, first compound 1 µM) was 87.5%. It also gave a viability, T/C (second compound 0.1 µM, first compound 3.16 µM) of 68.4%, a viability, T/C (second compound 0.1 µM, first compound 10 µM) of 35.1% and a viability, T/C (second compound 0.316 µM, first compound 0.0316 µM) of 89.5%. For the same molecule, the viability, T/C (second compound 0.316 µM, first compound 0.1 µM) was 98.9%, the viability, T/C (second compound 0.316 µM, first compound 0.316 µM) was 101% and the viability, T/C (second compound 0.316 µM, first compound 1 µM) was 92.2%. The viability, T/C (second compound 0.316 µM, first compound 3.16 µM) was 89.1%, the viability, T/C (second compound 0.316 µM, first compound 10 µM) was 36.2% and the viability, T/C (second compound 1 µM, first compound 0.0316 µM) was 82.7%. It also gave a viability, T/C (second compound 1 µM, first compound 0.1 µM) of 87.6%, a viability, T/C (second compound 1 µM, first compound 0.316 µM) of 88.5% and a viability, T/C (second compound 1 µM, first compound 1 µM) of 73.5%. The viability, T/C (second compound 1 µM, first compound 3.16 µM) was 89% and the viability, T/C (second compound 1 µM, first compound 10 µM) was 28.1%.

In the case of `NC(=O)C(=Cn1cnc(-c2cc(C(F)(F)F)cc(C(F)(F)F)c2)n1)c1cncnc1`, the viability, T/C (compound 0.000949 µM) is reported as 97.2% and 85.3% and 90.9%, the viability, T/C (compound 0.003 µM) is reported as 94.1% and 76.9% and 88.4% and the viability, T/C (compound 0.00949 µM) is reported as 67.6% and 69.8% and 61.6%. The viability, T/C (compound 0.03 µM) was 46.4% and 29.8% and 40.1%, the viability, T/C (compound 0.0949 µM) was 18.6% and 11.1% and 9.98% and the viability, T/C (compound 0.3 µM) was 1.34% and 1.15% and 1.13%. The IC50 (curve of compound) was 23.9 nM and 16.6 nM and 17.7 nM.
